The values that follow come from US7638306B2, “Process of increasing cellular production of biologically active compounds” (Fermalogic, Inc., priority 2003, dated 2009).

Molecules are shown by their SMILES. Counter-ions that a name gives are not always drawn.

The test system of assay [1] is A. erythreum mutants containing the aph1 gene. Conditions: aphI (aph1) gene from Tn903 expressed in A. erythreum. From the text: E. coli library of A. erythreum genomic DNA. The plasmid library was constructed in the A. erythreum integration vector pFL2082, a pUC19-derived vector containing the aphI gene from Tn903. […] Several different vector preparations were dephosphorylated with different concentrations of CIAP or SAP in order to obtain the highest ratio of white to blue colonies after ligation. […] To generate a library that represented in excess of 5-fold coverage of the chromosome (estimated A. erythreum genome size somewhere between 4-8 Mb, representing about 4,000-8,000 coding sequences), 100,000 white colonies were harvested into 25 pools. This large number of colonies was chosen based on the assumption that some genes will be disproportionately represented over others after selection in E. coli. The colonies were split among 25 pools (ca. 4,000 colonies/pool) to increase randomness. To determine the insert size of random plasmid isolates a total of 65 white colonies were analyzed by restriction analysis of their plasmid DNA. […] This library was designated A. erythreum genomic library or library 1.
To generate a gene replacement library we developed a rapid, simple visual screen that took advantage of the Kn^r phenotype of single crossover mutants and the Kn^s phenotype of gene replacement mutants. […]

Assay [2] relates to wild type A. erythreum. In words: growth inhibition of wild type A. erythreum by kanamycin. The format is cell-based, Aeromicrobium erythreum.

As to `NC[C@H]1O[C@H](O[C@H]2[C@H](O)[C@@H](O[C@H]3O[C@H](CO)[C@@H](O)[C@H](N)[C@H]3O)[C@H](N)C[C@@H]2N)[C@H](O)[C@@H](O)[C@@H]1O` [kanamycin], the “kanamycin concentration up to which resistance is conferred with good growth” value in assay [1] was 10 to 15 µg/mL. Further, in assay [2], the “kanamycin concentration to which A. erythreum is sensitive (growth inhibited)” value is at least 2 µg/mL.

Regarding `NC[C@H]1O[C@H](O[C@H]2[C@H](O)[C@@H](O[C@H]3O[C@H](CO)[C@@H](O)[C@H](N)[C@H]3O)[C@H](N)C[C@@H]2N)[C@H](O)[C@@H](O)[C@@H]1O` [Kanamycin sulfate], in assay [2], the “kanamycin concentration to which A. erythreum is sensitive (growth inhibited)” value was at least 5 µg/mL.
